Reference: patent US8772489B2, “Optically active 2-hydroxy tetrahydrothienopyridine derivatives, preparation method and use in manufacture of medicament thereof” (Jiangsu Vcare PharmaTech Co. Ltd., priority 2010, dated 2014)
“And” between values parts separate entries of the source, which are not always exact repeats. Identical values can stand only once. Counter-ions that a name gives are not always drawn. Like-named read-outs stand apart in the source and are kept apart here.

How the values were obtained:
platelet aggregation = test: animal or person; type: in vivo; settings: Rattus norvegicus, read-out: Aggregation inhibition (%)
Description: The positive control and the test compounds (prepared in the above examples) were formulated in 0.5% CMC-Na (carboxymethylcellulose sodium) into suspensions for administration to animals.
Animals: male SD rats, weighed about 250 g, and supplied by Shanghai Super-B&K Laboratory Animal Corp. Ltd. Animal certificate No.: 2008001605451, and license No.: SCXK (Hu); SCXK (Hu) 2008-0016.
Instruments: a centrifuge (80-2 bench top low-speed centrifuge), an automatic platelet aggregation tester (STELLEXLG-PAPER-I platelet coagulation/aggregation analyzer), and others.
Methods: the pharmacological activity test of the compounds of the present invention for platelet aggregation was performed following Born's turbidimetric method (Nature, 1962, 194(4832): 927). An agglomeration-promoting substance, adenosine diphosphate (ADP), was added to a platelet rich plasma (PRP), and stirred to allow platelets to aggregate. […] This experiment can be used to evaluate the platelet aggregation effect induced by the test compounds administrated in-vivo or in-vitro.
The PRP was adjusted with a platelet poor plasma (PPP) to maintain the platelet counts at […]. The PRP was taken into a test cup, and incubated at 37° C. for 10 min. Light transmission was adjusted to 0% with PRP and to 100% with PPP for each measurement. By using ADP (with a final concentration of 5 μM) as an inducer, the platelet aggregation percentages were measured through the turbidimetric method using a platelet aggregation tester, and statistically compared by t-test. The platelet aggregation inhibition was calculated by the equation: platelet aggregation inhibition (%)=[1−(aggregation percent in dosed tube/aggregation percent in control tube)]×100%.

[1] = Pharmacokinetics and bioavailability of Compound I-2 in rats (plasma Compound IV-1 by LC-MS/MS); type: in vivo, rat; settings: for Concentration of Compound IV-1 in plasma, single animals / concentration at 0.08 h / concentration at 0.167 h / concentration at 0.5 h / concentration at 1 h / concentration at 2 h / concentration at 4 h / concentration at 6 h: intravenous injection 8 μmol/kg; for concentration at 0.08 h / concentration at 0.167 h / concentration at 0.5 h / concentration at 1 h / concentration at 2 h / concentration at 4 h / concentration at 6 h: 8 μmol/kg
Description: The rats were fasted overnight, but allowed free access to water.

[2] = male SD rats, oral gavage 3 mg/kg, blood after 2 hrs, ADP 5 μM
[3] = male SD rats, oral gavage 10 mg/kg, blood after 2 hrs, ADP 5 μM
[4] = SD rats, intravenous injection 8 μmol/kg (2.7 mg/kg), individual animal

COC(=O)C(c1ccccc1Cl)N1CCc2sc(OC(C)=O)cc2C1 (racemic) [I-2″, (R,S)-Methyl 2-(2-acetoxy-6,7-dihydrothieno[3,2-c]pyridin-5(4H)-yl)-2-(2-chlorophenyl)-acetate]
inhibition at 3 mg/kg (platelet aggregation; [2]): 43.9% | inhibition at 10 mg/kg (platelet aggregation; [3]): 78.5%

COC(=O)C(c1ccccc1Cl)N1CCc2sc(OC(=O)N(C)C)cc2C1 (racemic) [I-18′, (R,S)-Methyl 2-(2-(N,N-dimethylcarbamoyloxy)-6,7-dihydrothieno[3,2-c]pyridin-5(4H)-yl)-2-(2-chlorophenyl)-acetate]
inhibition at 3 mg/kg (platelet aggregation; po, 2 h): 29.8%

COC(=O)[C@H](c1ccccc1Cl)N1CCc2sccc2C1 [Clopidogrel sulfate, reference compound]
inhibition at 3 mg/kg (platelet aggregation; po, 2 h): 15.4% | inhibition at 10 mg/kg (platelet aggregation; po, 2 h): 79.6%

COC(=O)[C@H](c1ccccc1Cl)N1CCc2sc(OC(C)=O)cc2C1 [Compound I-2, (S)-Methyl 2-(2-acetoxy-6,7-dihydrothieno[3,2-c]pyridin-5(4H)-yl)-2-(2-chlorophenyl)-acetate]
inhibition at 3 mg/kg (platelet aggregation; [2]): 69.9% | inhibition at 10 mg/kg (platelet aggregation; [3]): 83.5%

CCC(=O)Oc1cc2c(s1)CCN([C@H](C(=O)OC)c1ccccc1Cl)C2 [Compound I-3, (S)-Methyl 2-(2-propanoyloxy-6,7-dihydrothieno[3,2-c]pyridin-5(4H)-yl)-2-(2-chlorophenyl)-acetate]
inhibition at 3 mg/kg (platelet aggregation; [2]): 38.4%

CCCC(=O)Oc1cc2c(s1)CCN([C@H](C(=O)OC)c1ccccc1Cl)C2 [Compound I-4, (S)-methyl 2-(2-butanoyloxy-6,7-dihydrothieno[3,2-c]pyridin-5 (4H)-yl)-2-(2-chlorophenyl)-acetate]
inhibition at 3 mg/kg (platelet aggregation; [2]): 46.2%

COC(=O)[C@H](c1ccccc1Cl)N1CCc2sc(OC(=O)c3ccccc3OC(C)=O)cc2C1 [Compound I-5, (S)-methyl 2-(2-(2-acetoxybenzoyloxy)-6,7-dihydrothieno[3,2-c]pyridin-5(4H)-yl)-2-(2-chlorophenyl)-acetate]
inhibition at 3 mg/kg (platelet aggregation; po, 2 h): 55.1%

COC(=O)[C@H](c1ccccc1Cl)N1CCc2sc(OC(=O)C(C)(C)C)cc2C1 [Compound I-7, (S)-methyl 2-(2-pivaloyloxy-6,7-dihydrothieno[3,2-c]pyridin-5(4H)-yl)-2-(2-chlorophenyl)-acetate]
inhibition at 3 mg/kg (platelet aggregation; [2]): 41.9%

COC(=O)[C@H](c1ccccc1Cl)N1CCc2sc(OC(=O)c3ccc(OC)cc3)cc2C1 [Compound I-11, (S)-Methyl 2-(2-(4-methoxybenzoyloxy)-6,7-dihydrothieno[3,2-c]pyridin-5(4H)-yl)-2-(2-chlorophenyl)-acetate]
inhibition at 3 mg/kg (platelet aggregation; [2]): 13.6%

COC(=O)[C@H](c1ccccc1Cl)N1CCc2sc(OC(=O)Cc3ccccc3)cc2C1 [Compound I-12, (S)-Methyl 2-(2-phenylacetoxy-6,7-dihydrothieno[3,2-c]pyridin-5(4H)-yl)-2-(2-chlorophenyl)-acetate]
inhibition at 3 mg/kg (platelet aggregation; [2]): 18.3%

COC(=O)[C@H](c1ccccc1Cl)N1CCc2sc(OC(=O)OCC(C)C)cc2C1 [Compound I-15, (S)-Methyl 2-(2-(isobutoxycarbonyloxy)-6,7-dihydrothieno[3,2-c]pyridin-5(4H)-yl)-2-(2-chlorophenyl)-acetate]
inhibition at 3 mg/kg (platelet aggregation; [2]): 45.3%

COC(=O)[C@H](c1ccccc1Cl)N1CCC2SC(=O)C=C2C1 (stereo partly drawn) [IV-1, (2S)-Methyl 2-(2-oxo-7,7a-dihydrothieno[3,2-c]pyridin-5 (2H,4H,6H)-yl)-2-(2-chlorophenyl)-acetate]
AUC0-t of Compound IV-1, single animals [1, 4]: 0.304 µg·h/mL and 0.229 µg·h/mL | AUC0-∞ of Compound IV-1, single animals [1, 4]: 0.306 µg·h/mL and 0.229 µg·h/mL | CLtot of Compound IV-1, single animals [1, 4]: 8.84 L/h/kg and 11.8 L/h/kg | Cmax of Compound IV-1, single animals [1, 4]: 0.785 µg/mL and 0.533 µg/mL | V2 of Compound IV-1, single animals [1, 4]: 18.8 L/kg and 15.9 L/kg and 10.9 L/kg | t1/2 of Compound IV-1, single animals [1, 4]: 78 min and 75 min and 38.6 min | V2 of Compound IV-1, Mean ([1]; SD rats, intravenous injection 8 μmol/kg (2.7 mg/kg), mean of 3): 15.2 L/kg | Concentration of Compound IV-1 in plasma, single animals ([1]; SD rats, 0.08 h, individual animal): 0.785 µg/mL and 0.533 µg/mL | Concentration of Compound IV-1 in plasma, single animals ([1]; SD rats, 0.167 h, individual animal): 0.417 µg/mL and 0.311 µg/mL | Concentration of Compound IV-1 in plasma, single animals ([1]; SD rats, 0.5 h, individual animal): 0.129 µg/mL and 0.107 µg/mL | Concentration of Compound IV-1 in plasma, single animals ([1]; SD rats, 1 h, individual animal): 0.0493 µg/mL and 0.0373 µg/mL | Concentration of Compound IV-1 in plasma, single animals ([1]; SD rats, 2 h, individual animal): 0.00906 µg/mL and 0.00974 µg/mL | Concentration of Compound IV-1 in plasma, single animals ([1]; SD rats, 4 h, individual animal): 0.00287 µg/mL and 0.00202 µg/mL | Concentration of Compound IV-1 in plasma, single animals ([1]; SD rats, 6 h, individual animal): 0.000977 µg/mL and 0.00106 µg/mL | AUC(0-t) ([1]; male, SD, rat, plasma, iv, 2.7 mg/kg, intravenous injection 8 μmol/kg (2.7 mg/kg), individual animal, read-out: AUC0-t of Compound IV-1, single animals): 0.266 µg·h/mL | AUC(0-inf) ([1]; male, SD, rat, plasma, iv, 2.7 mg/kg, intravenous injection 8 μmol/kg (2.7 mg/kg), individual animal, read-out: AUC0-∞ of Compound IV-1, single animals): 0.269 µg·h/mL | clearance ([1]; male, SD, rat, plasma, iv, 2.7 mg/kg, intravenous injection 8 μmol/kg (2.7 mg/kg), individual animal, read-out: CLtot of Compound IV-1, single animals (converted)): 10 L/h/kg | Cmax ([1]; male, SD, rat, plasma, iv, 2.7 mg/kg, intravenous injection 8 μmol/kg (2.7 mg/kg), individual animal, read-out: Cmax of Compound IV-1, single animals): 0.696 µg/mL | clearance ([1]; male, SD, rat, plasma, iv, 2.7 mg/kg, intravenous injection 8 μmol/kg (2.7 mg/kg), mean of 3, read-out: CLtot of Compound IV-1, Mean (converted)): 10.2 L/h/kg | Tmax ([1]; male, Sprague-Dawley, rat, plasma, 8 umol/kg, SD rats, intravenous injection 8 μmol/kg (2.7 mg/kg), mean of 3, read-out: Tmax of Compound IV-1, Mean): 4.98 min | AUC(0-t) ([1]; male, Sprague-Dawley, rat, plasma, iv, 8 umol/kg, SD rats, intravenous injection 8 μmol/kg (2.7 mg/kg), mean of 3, read-out: AUC0-t of Compound IV-1, Mean): 0.266 ± 0.0376 µg·h/mL | AUC(0-inf) ([1]; male, Sprague-Dawley, rat, plasma, iv, 8 umol/kg, SD rats, intravenous injection 8 μmol/kg (2.7 mg/kg), mean of 3, read-out: AUC0-∞ of Compound IV-1, Mean): 0.268 ± 0.0383 µg·h/mL | Cmax ([1]; male, Sprague-Dawley, rat, plasma, iv, 8 umol/kg, SD rats, intravenous injection 8 μmol/kg (2.7 mg/kg), mean of 3, read-out: Cmax of Compound IV-1, Mean): 0.671 ± 0.128 µg/mL | half-life ([1]; male, Sprague-Dawley, rat, plasma, iv, 8 umol/kg, SD rats, intravenous injection 8 μmol/kg (2.7 mg/kg), mean of 3, read-out: t1/2 of Compound IV-1, Mean (converted)): 63.6 ± 21.8 min | concentration at 0.08 h ([1]; male, Sprague-Dawley, rat, plasma, iv, SD rats, 0.08 h, individual animal, read-out: Concentration of Compound IV-1 in plasma, single animals): 0.696 µg/mL | concentration at 0.08 h ([1]; male, Sprague-Dawley, rat, plasma, iv, SD rats, 0.08 h, mean of 3, read-out: Concentration of Compound IV-1 in plasma, Mean): 0.671 µg/mL | concentration at 0.167 h ([1]; male, Sprague-Dawley, rat, plasma, iv, SD rats, 0.167 h, individual animal, read-out: Concentration of Compound IV-1 in plasma, single animals): 0.317 µg/mL | concentration at 0.167 h ([1]; male, Sprague-Dawley, rat, plasma, iv, SD rats, 0.167 h, mean of 3, read-out: Concentration of Compound IV-1 in plasma, Mean): 0.348 µg/mL | concentration at 0.5 h ([1]; male, Sprague-Dawley, rat, plasma, iv, SD rats, 0.5 h, individual animal, read-out: Concentration of Compound IV-1 in plasma, single animals): 0.108 µg/mL | concentration at 0.5 h ([1]; male, Sprague-Dawley, rat, plasma, iv, SD rats, 0.5 h, mean of 3, read-out: Concentration of Compound IV-1 in plasma, Mean): 0.115 µg/mL | concentration at 1 h ([1]; male, Sprague-Dawley, rat, plasma, iv, SD rats, 1 h, individual animal, read-out: Concentration of Compound IV-1 in plasma, single animals): 0.051 µg/mL | concentration at 1 h ([1]; male, Sprague-Dawley, rat, plasma, iv, SD rats, 1 h, mean of 3, read-out: Concentration of Compound IV-1 in plasma, Mean): 0.0459 µg/mL | concentration at 2 h ([1]; male, Sprague-Dawley, rat, plasma, iv, SD rats, 2 h, individual animal, read-out: Concentration of Compound IV-1 in plasma, single animals): 0.0109 µg/mL | concentration at 2 h ([1]; male, Sprague-Dawley, rat, plasma, iv, SD rats, 2 h, mean of 3, read-out: Concentration of Compound IV-1 in plasma, Mean): 0.0099 µg/mL | concentration at 4 h ([1]; male, Sprague-Dawley, rat, plasma, iv, SD rats, 4 h, individual animal, read-out: Concentration of Compound IV-1 in plasma, single animals): 0.00394 µg/mL | concentration at 4 h ([1]; male, Sprague-Dawley, rat, plasma, iv, SD rats, 4 h, mean of 3, read-out: Concentration of Compound IV-1 in plasma, Mean): 0.00294 µg/mL | concentration at 6 h ([1]; male, Sprague-Dawley, rat, plasma, iv, SD rats, 6 h, individual animal, read-out: Concentration of Compound IV-1 in plasma, single animals): 0.00129 µg/mL | concentration at 6 h ([1]; male, Sprague-Dawley, rat, plasma, iv, SD rats, 6 h, mean of 3, read-out: Concentration of Compound IV-1 in plasma, Mean): 0.00111 µg/mL | Tmax ([1]; male, rat, plasma, SD rats, intravenous injection 8 μmol/kg (2.7 mg/kg), individual animal, read-out: Tmax of Compound IV-1, single animals): 4.98 min
